Laboratory results: patent US20230151302A1, “Cationic surfactants, in particular ethyl lauroyl arginate LAE, for treating or preventing infections and contaminations with Coronavirus” (priority 2020, published 2023)
Where “and” joins values, the source holds several entries; their conditions need not be identical. Equal values may be shown once. Entries after “also recorded” stand apart in the source; their conditions may differ. Read-outs that look alike come from different tables or passages of the source.

How the values were obtained:
[1] = test system: SARS-CoV-2; conditions: cited from earlier work
[2] = test system: Coronavirus 229E (ATCC VR-740); format: cell-based, human Coronavirus 229E
[3] = test system: Poliovirus type 1 (ATCC VR-192); format: cell-based
[4] = test system: MRC-5, ref. FTMR cells
[5] = test system: Vero, ref. FTVE cells
[6] = test system: Herpes simplex virus type 1; conditions: 200 ppm in water, after 5 and 60 minutes; monohydrochloride; cited from earlier work
[7] = test system: Vaccinia virus (Orthopoxvirus); conditions: monohydrochloride; cited from earlier work
[8] = test system: Bovine Parainfluenza 3 virus (ATCC VR-281); conditions: 200 ppm in water, after 5 and 60 minutes; monohydrochloride; cited from earlier work
[9] = in vivo; cited from earlier work
[10] = rats; cited from earlier work
[11] = test system: Adenovirus type 5 (ATCC VR-5); format: cell-based
[12] = test system: murine Norovirus (cepa S99 Berlin); format: cell-based

[H]/N=C(\N/C(=N/[H])NCCCCCCNC(=N)NC(=N)Nc1ccc(Cl)cc1)Nc1ccc(Cl)cc1 [chlorhexidine]
reduction in viral titres [1]: < 2 log fold

CCO [ethanol]
effect on virus infectivity ([1]; ethanol alone at <23%): no effect

L-arginine, N^α-lauroyl-ethyl ester monohydrochloride [LAE®]
effectiveness against the virus [2]: effective | reduction (maximum effects) [2]: > 4 logo | viricidal activity (reduction ≥4 log10) [2]: has viricidal activity | effectiveness against the virus [3]: not effective | viricidal activity (reduction ≥4 log10) [3]: has no viricidal activity | Reduction with 95% confidence interval after 30 minutes ([3]; monohydrochloride): 2.33±0.53 and 1.82±0.52 and 1.49±0.46 and 1.82 ± 0.52 log10 and 1.49 ± 0.46 log10 and 2.33 ± 0.53 log10 | Level of cytotoxicity [4]: 0.5 | Level of cytotoxicity [5]: 0.5 | antiviral activity, remaining virus (TCID50) [6]: No remaining virus was detected; also recorded: effective | antiviral activity, remaining virus (TCID50) [7]: No remaining virus was detected; also recorded: effective | antiviral activity, remaining virus (TCID50) [8]: No remaining virus was detected; also recorded: effective | toxicity to animals and humans [9]: completely harmless | absorption and metabolization [10]: fast absorption and metabolization

C=O [Formaldehyde, formaldehyde, reference compound]
log10 TCID50 after 5 min [2]: 3.58 log10 TCID50 | log10 TCID50 after 15 min [2]: 2.49 log10 TCID50 | log10 TCID50 after 30 min [3]: 5.00 log10 TCID50 | log10 TCID50 after 60 min [3]: 3.07 log10 TCID50 | log10 TCID50 after 30 min [11]: 2.58 log10 TCID50 | log10 TCID50 after 60 min [11]: 1.33 log10 TCID50 | log10 TCID50 after 30 min [12]: 3.16 log10 TCID50 | log10 TCID50 after 60 min [12]: 1.74 log10 TCID50 | Level of cytotoxicity ([4]; human): 0.5 | Level of cytotoxicity ([5]; African green monkey): 0.5
